From article PMC4496498, “Radiosynthesis, In Vivo Biological Evaluation, and Imaging of Brain Lesions with [^123I]-CLINME, a New SPECT Tracer for the Translocator Protein” (Disease Markers, 2015)

Legend:
TSPO [1] = molecular target: T1, TSPO (Rattus norvegicus, UniProt P16257); test: In vitro binding assay, TSPO, [^3H]-PK11195; parameters: from tissue
Experimental: (§1) […] (IC50) of CLINME for the TPSO and for the central benzodiazepine receptor (CBR) was determined as described previously. The IC50 values were converted to the inhibition constant, Ki, using Cheng-Prusoff equation.

TSPO [2] = molecular target: T1, TSPO; settings: competing drug 1 mg/Kg i.v. 5 min prior to tracer; rats, 30 min p.i.; vs controls
Experimental: The saturation effect of [^123I]-CLINME uptake was studied in competition experiments by injecting CLINME (1 mg/Kg), 5 min prior to [^123I]-CLINME (0.7 MBq, 10 pmoles in 0.1 mL of 0.9% saline), via the tail vein, to 8–10-week-old male SD rats.
The drugs were dissolved in dimethyl sulfoxide/saline (1 : 5) and injected intravenously 5 min prior to [^123I]-CLINME. Groups of rats (n = 3-4) were sacrificed by CO2 administration followed by cervical fracture 30 min after administration of [^123I]-CLINME and peripheral organs (liver, spleen, lung, heart, kidney, and adrenals), blood, olfactory bulbs, and the remainder of the brain were removed. The radioactivity concentrations were calculated as described previously. Results were analysed by one-way analysis of variance (ANOVA) followed by Tukey's post hoc test for comparing the tissue radioactivity concentrations in the treated animals (n = 3-4) and in the controls (n = 6). The criterion for significance was P < 0.05.

TSPO [3] = molecular target: T1, TSPO; test: In vitro autoradiography with [^125I]-CLINME on lesioned brain tissue; assay type: binding, SD rats; parameters: from tissue; host or cells: male Sprague-Dawley rats: peripheral organs and brain in vivo; AMPA-lesioned striatum; brain sections; settings: 20 μM drug, 16 nM [^125I]-CLINME
[4] = Lipophilicity, log P estimated from HPLC retention times; assay type: physicochemical; settings: pH 7.5
Description: The log P values were estimated by comparing HPLC retention times of test compounds with retention times of standards having known log P values as described.

TSPO [5] = molecular target: T1, TSPO; test: In vitro binding assay, TSPO, [^3H]-Ro 5-4864; parameters: from tissue
Experimental: as §1

[6] = molecular target: central benzodiazepine receptor (CBR); test: In vitro binding assay, central benzodiazepine receptor; settings: membranes from kidney and brain cortex; read-out: inhibition constant for the CBR
Experimental: as §1

TPSO = settings: rats, dose of 5 mg/Kg; cited from earlier work

Row | SMILES | melting point [°C] | Ki (TSPO [1]) [nM] | selectivity for the TPSO over the CBR (TSPO [1]; in vitro) [fold] | decrease of [^123I]-CLINME uptake in the heart (TSPO [2]) [%] | decrease of [^123I]-CLINME uptake in the kidney (TSPO [2]) [%] | decrease of [^123I]-CLINME uptake in the lungs (TSPO [2]) [%] | decrease of [^123I]-CLINME uptake in the olfactory bulbs (TSPO [2]) [%] | increase of [^123I]-CLINME uptake in the blood (TSPO [2]) [%] | effect of coincubation on the differential (lesioned vs contralateral) binding of [^125I]-CLINME (TSPO [3]) | chromatographic logP [4] | Ki (TSPO [5]) [nM] | Ki [6] [nM] | block of the uptake of [^123I]-PK11195 in the adrenals (TPSO) [%] | chromatographic logP ([4]; HPLC retention times compared with standards of known log P)
1 | CCN(C)C(=O)Cc1c(-c2ccc(I)cc2)nc2ccc(Cl)cn12 [CLINME, 2-(6-Chloro-2-(4-iodophenyl)imidazo[1,2-a]pyridin-3-yl)-N-ethyl-N-methylacetamide] | 65 to 67 | 1.6 ± 0.2 | 110 | 86 | 71 | 76 | 38 | 45 | eliminated | 3.27 | 4.5 ± 0.6 | 183 ± 20 |  | 
2 | CCC(C)N(C)C(=O)c1cc2ccccc2c(-c2ccccc2Cl)n1 (centres unmarked) [PK11195] |  |  |  | 87 | 72 | 81 | 36 | 29 | eliminated |  |  |  | 85 | 3.35
